Measured values from the NIST ThermoML archive (doi:10.1021/je700339f).
Numbers after ± are expanded uncertainties.

Assay: xn = mol fraction of the nth substance listed
Conditions: 298 K, Liquid

ClCCCCCCCl [1,6-dichlorohexane] + CC(=O)N(C)C
mass density [kg/m3]
Conditions	x2 = 0.1002	x2 = 0.1985	x2 = 0.3002	x2 = 0.404	x2 = 0.4943	x2 = 0.6007	x2 = 0.7006	x2 = 0.8012	x2 = 0.8994
15000 kPa	–	–	–	–	–	–	–	979.6 ± 3.8	963.4 ± 3.9
15500 kPa	1064.9 ± 3	1055.6 ± 3.1	1044.8 ± 3.1	1033.3 ± 3.2	1022.3 ± 3.3	1008.6 ± 3.4	995 ± 3.5	980 ± 3.8	963.8 ± 3.9
16000 kPa	1065.3 ± 3	1055.9 ± 3.1	1045.1 ± 3.1	1033.6 ± 3.2	1022.6 ± 3.3	1009 ± 3.4	995.3 ± 3.5	980.2 ± 3.8	964 ± 3.9
16400 kPa	–	–	–	–	–	–	–	980.5 ± 3.8	–
16500 kPa	1065.6 ± 3.1	1056.2 ± 3.1	1045.3 ± 3.1	1033.9 ± 3.2	1022.9 ± 3.3	1009.3 ± 3.4	995.6 ± 3.5	–	964.3 ± 2.8
17000 kPa	1065.9 ± 3.1	1056.5 ± 3.1	1045.7 ± 3.1	1034.2 ± 3.2	1023.2 ± 3.3	1009.6 ± 3.4	995.9 ± 3.5	980.8 ± 3.8	964.6 ± 3.9
17400 kPa	–	–	–	–	–	–	996.2 ± 3.5	–	–
17500 kPa	1066.2 ± 3.1	1056.8 ± 3.1	1046 ± 3.1	1034.6 ± 3.2	1023.5 ± 3.3	1009.9 ± 3.4	–	981.1 ± 3.8	964.9 ± 3.9
18000 kPa	1066.5 ± 3.1	1057.1 ± 3.1	1046.3 ± 3.1	1034.9 ± 3.2	1023.8 ± 3.3	1010.2 ± 3.4	996.5 ± 3.5	981.4 ± 3.8	965.2 ± 3.9
18500 kPa	1066.8 ± 3.1	1057.5 ± 3.1	1046.7 ± 3.1	1035.2 ± 3.2	1024 ± 3.3	1010.5 ± 3.4	996.9 ± 3.5	981.6 ± 3.8	965.4 ± 3.9
19000 kPa	1067.2 ± 3.1	1057.8 ± 3.1	1047 ± 3.1	1035.5 ± 3.2	1024.3 ± 3.3	1010.9 ± 3.4	997.1 ± 3.5	982 ± 3.8	965.7 ± 3.9
19500 kPa	1067.5 ± 3.1	1058.1 ± 3.1	1047.3 ± 3.1	1035.9 ± 3.2	1024.7 ± 3.3	1011.2 ± 3.4	997.4 ± 3.5	982.3 ± 3.8	966 ± 3.9
19900 kPa	–	–	–	–	–	–	997.6 ± 3.5	–	–
20000 kPa	1067.9 ± 3.1	1058.4 ± 3.1	1047.7 ± 3.1	1036.2 ± 3.2	1025 ± 3.3	1011.5 ± 3.4	–	982.6 ± 3.8	966.4 ± 3.9
